Literature values in PMC6982354, “Promising New Inhibitors of Tyrosyl-DNA Phosphodiesterase I (Tdp 1) Combining 4-Arylcoumarin and Monoterpenoid Moieties as Components of Complex Antitumor Therapy” (International Journal of Molecular Sciences, 2019).

Experiments:
Tdp1 = molecular target: T1, Tdp1 (Homo sapiens, UniProt Q9NUW8); design: method as in PMID 27658793; settings: Tdp1 inhibition, Figure 1; cited from earlier work
T1 construct: made in house

human cancer cells = test system: human cancer cells; design: method as in PMID 27658793; settings: compound in non-toxic doses; cited from earlier work

T1 sequence (Q9NUW8 whole entry): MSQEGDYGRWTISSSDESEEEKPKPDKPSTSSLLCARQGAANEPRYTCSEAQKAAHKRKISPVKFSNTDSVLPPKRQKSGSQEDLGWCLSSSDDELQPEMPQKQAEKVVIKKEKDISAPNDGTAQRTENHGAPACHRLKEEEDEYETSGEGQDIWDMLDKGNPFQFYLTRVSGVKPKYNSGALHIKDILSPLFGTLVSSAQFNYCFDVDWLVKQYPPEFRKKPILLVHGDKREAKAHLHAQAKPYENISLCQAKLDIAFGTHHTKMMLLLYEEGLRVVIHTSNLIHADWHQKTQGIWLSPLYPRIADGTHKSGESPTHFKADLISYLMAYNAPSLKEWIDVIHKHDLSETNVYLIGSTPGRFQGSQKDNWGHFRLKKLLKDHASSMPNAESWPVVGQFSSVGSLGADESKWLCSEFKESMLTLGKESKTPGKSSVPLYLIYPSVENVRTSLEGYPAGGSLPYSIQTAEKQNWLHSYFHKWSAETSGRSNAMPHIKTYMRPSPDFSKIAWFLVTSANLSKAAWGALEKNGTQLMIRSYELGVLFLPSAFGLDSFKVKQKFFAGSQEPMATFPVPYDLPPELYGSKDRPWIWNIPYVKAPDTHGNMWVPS

## COc1cccc(COc2ccc3c4c(c(=O)oc3c2)CCCC4)c1 [compound 1]
Tdp1
  IC50: 5 µM

## CC1(C)C2CC=C(COc3ccc4c5c(c(=O)oc4c3)CCC5)C1C2 (centres unmarked) [compound 2]
Human cancer cells
  effect on the cytotoxic activity of CPT: significantly increased
